Paper PMC3124785 (ACS chemical neuroscience, 2011)
Entries after “also recorded” stand apart in the source; their conditions may differ. Where two headings read alike, the source gives them in different places.

Legend:
primary cortical neurons = conditions: for neuroprotection against OGD at lower concentrations: 1 μM or below; for effect of G15 on neuroprotection by antioxidants / sulforaphane: G15 pre-treatment (-45 min); for neuroprotection against OGD by antioxidants / sulforaphane: concentration series; for neuroprotection against OGD by BT-SERM analogs and derivatives: all 100 nM, MTT assay; for neuroprotection against OGD, initial screen of BT-SERMs: BT-SERMs 100 nM; for concentration giving equivalence to E2 (10 nM) in neuroprotection: MTT cell viability assay, 2 h OGD, 24 h reperfusion; for effect of GPR30 antagonist G15 on neuroprotection: G15 100 nM pre-treatment, test compounds 100 nM
ERβ = conditions: cited from earlier work
ERα = conditions: cited from earlier work
ER = target: T1, ER (Homo sapiens, UniProt P03372); conditions: Fig. 1; cited from earlier work
T1 sequence (P03372 1-595): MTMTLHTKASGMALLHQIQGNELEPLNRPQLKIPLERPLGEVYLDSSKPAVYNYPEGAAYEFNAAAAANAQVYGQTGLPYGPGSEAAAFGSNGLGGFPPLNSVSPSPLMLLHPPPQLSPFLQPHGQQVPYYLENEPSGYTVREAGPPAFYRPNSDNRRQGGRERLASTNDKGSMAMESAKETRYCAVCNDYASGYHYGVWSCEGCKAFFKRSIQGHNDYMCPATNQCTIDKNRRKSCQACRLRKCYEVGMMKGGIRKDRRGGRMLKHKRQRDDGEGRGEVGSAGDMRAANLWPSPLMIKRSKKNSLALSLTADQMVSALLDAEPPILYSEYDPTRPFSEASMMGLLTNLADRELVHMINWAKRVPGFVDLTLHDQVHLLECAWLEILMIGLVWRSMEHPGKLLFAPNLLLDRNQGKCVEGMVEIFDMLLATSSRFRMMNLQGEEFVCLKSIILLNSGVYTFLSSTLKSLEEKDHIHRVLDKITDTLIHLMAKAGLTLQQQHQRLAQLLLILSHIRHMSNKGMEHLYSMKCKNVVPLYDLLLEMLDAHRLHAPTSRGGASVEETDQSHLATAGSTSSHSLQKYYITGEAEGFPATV

iNOS = conditions: read-out: Ki iNOS; cited from earlier work

COC(=O)[C@@H](N)CCCNC(N)=N[N+](=O)[O-] [L-NAME, L-nitro-arginine methyl ester]
effect of L-NAME on neuroprotection (primary cortical neurons; L-NAME 100 μM, alone or in combination with estrogen and SERMs): no significant effect

Cc1cc(C(C)(C)C)c(O)c(C(C)(C)C)c1 [BHT, butylated hydroxtoluene]
neuroprotection against OGD at lower concentrations (primary cortical neurons; MTT and LDH): neuroprotective
effect of G15 on neuroprotection by antioxidants / sulforaphane (primary cortical neurons): insensitive to antagonism by G15
neuroprotection against OGD by antioxidants / sulforaphane (primary cortical neurons; MTT and LDH): neuroprotective
effect in OGD neurons at higher concentration (primary cortical neurons; higher concentration (10 μM), MTT and LDH): neurotoxicity; also recorded: neurotoxic

O=C(CCCCCC(=O)c1c(-c2ccc(O)cc2)sc2cc(O)ccc12)c1c(-c2ccc(O)cc2)sc2cc(O)ccc12 [bisBTChd, 1,7-bis(6-hydroxy-2-(4-hydroxyphenyl)benzo[b]thiophen-3-yl)heptane-1,7-dione]
neuroprotection against OGD by BT-SERM analogs and derivatives (primary cortical neurons): neuroprotective

C[S+]([O-])CCCCN=C=S (centres unmarked) [sulforaphane]
neuroprotection against OGD at lower concentrations (primary cortical neurons; MTT and LDH): neuroprotection
neuroprotection against OGD at lower concentrations (primary cortical neurons; MTT and LDH, listed as Sulforaphane): neuroprotective
effect of G15 on neuroprotection by antioxidants / sulforaphane (primary cortical neurons): did not inhibit neuroprotection; also recorded: insensitive to antagonism by G15

Oc1ccc(-c2sc3cc(O)ccc3c2Oc2ccc(OCCN3CCCCC3)cc2)cc1 [DMA, [6-hydroxy-3-[4-[2-(1-piperidinyl)-ethoxy]phenoxy]-2-(4-hydroxyphenyl)]benzo[b]thiophene]
neuroprotection against OGD, initial screen of BT-SERMs (primary cortical neurons; MTT and LDH): neuroprotective
concentration giving equivalence to E2 (10 nM) in neuroprotection (primary cortical neurons): 28 nM
binding to ERβ (ERβ): high affinity
binding to ERα (ERα): high affinity

C[C@]12CC[C@@H]3c4ccc(O)cc4CC[C@H]3[C@@H]1CC[C@@H]2O [E2, 17β-estradiol]
effect of GPR30 antagonist G15 on neuroprotection (primary cortical neurons; E2 10 nM): blocked neuroprotection
effect of ER antagonist ICI 182 780 on neuroprotection (primary cortical neurons; ICI 1 μM 45 min prior to OGD, SERMs 100 nM, E2 10 nM): block E2 mediated neuroprotection
greater cell death in the vehicle treated group than the E2 treated group (primary cortical neurons; OGD 2 h, recovery 24 h): 30-40%
neuroprotection against OGD by estrogens (primary cortical neurons; estrogens 10 nM, E2-BSA 10 ng/mL, MTT and LDH): neuroprotective

Oc1cccc(-c2cn(-c3cccc(O)c3)nn2)c1 [3,3-TDP]
effect of GPR30 antagonist G15 on neuroprotection (primary cortical neurons; E2 10 nM): GPR30-dependent
neuroprotection against OGD by BT-SERM analogs and derivatives (primary cortical neurons): neuroprotective

Cc1c(C)c2c(c(C)c1O)CCC(C)(C(=O)O)O2 (centres unmarked) [Trolox]
effect of G15 on neuroprotection by antioxidants / sulforaphane (primary cortical neurons): did not inhibit neuroprotection; also recorded: insensitive to antagonism by G15
neuroprotection against OGD by antioxidants / sulforaphane (primary cortical neurons; MTT and LDH): neuroprotective; also recorded: concentration dependent neuroprotection

COc1ccc(-c2sc3cc(O)ccc3c2Oc2ccc(OCCN3CCCCC3)cc2)cc1 [arzoxifene]
neuroprotection against OGD, initial screen of BT-SERMs (primary cortical neurons; MTT and LDH): inactive

Oc1ccc(-c2cn(-c3ccc(O)cc3)nn2)cc1 [4,4-TDP]
neuroprotection against OGD by BT-SERM analogs and derivatives (primary cortical neurons): no neuroprotective activity

O=C(c1ccc(OCCN2CCCCC2)cc1)c1c(-c2ccc(O)cc2)sc2cc(O)ccc12 [Ral, raloxifene]
neuroprotection against OGD, initial screen of BT-SERMs (primary cortical neurons; MTT and LDH): neuroprotective
concentration giving equivalence to E2 (10 nM) in neuroprotection (primary cortical neurons): 68 nM
concentration giving equivalence to E2 (10 nM) in neuroprotection (primary cortical neurons; listed as raloxifene): 62 nM

Oc1ccc(Oc2c(-c3ccc(F)cc3)sc3cc(O)ccc23)cc1 [HP-BTF, 2-(4-fluorophenyl)-3-(4-hydroxyphenoxy)benzo[b]thiophen-6-ol]
effect of GPR30 antagonist G15 on neuroprotection (primary cortical neurons; E2 10 nM): GPR30-dependent
neuroprotection against OGD by BT-SERM analogs and derivatives (primary cortical neurons): neuroprotective

Oc1ccc(-c2cc3ccc(O)cc3s2)cc1 [BTC, 2-(4-hydroxyphenyl)-benzo[b]thiophen-6-ol]
neuroprotection against OGD, initial screen of BT-SERMs (primary cortical neurons; MTT and LDH): active
effect of G15 on neuroprotection by antioxidants / sulforaphane (primary cortical neurons): did not inhibit neuroprotection
ER subtype selectivity (ERβ; ERβ versus ERα, Fig. 1): selectivity for ERβ
ER activity in cell culture (ER): ER agonist activity

N=C(NCCC[C@H](N)C(=O)O)N[N+](=O)[O-] [N^G-nitro-L-arginine]
Ki (iNOS): 4 µM

Cc1ccc(C(=O)c2c(-c3ccc(O)cc3)sc3cc(O)ccc23)cc1 [Tol-BTC, (6-hydroxy-2-(4-hydroxyphenyl)benzo[b]thiophen-3-yl)(p-tolyl)methanone]
neuroprotection against OGD by BT-SERM analogs and derivatives (primary cortical neurons): neuroprotective

CC(C)c1c(-c2ccc(O)cc2)sc2cc(O)ccc12 [iPr-BTC, 2-(4-hydroxyphenyl)-3-isopropylbenzo[b]thiophen-6-ol]
neuroprotection against OGD by BT-SERM analogs and derivatives (primary cortical neurons): neuroprotective
